Assay results published in PubChem BioAssay (NCI).
Where “and” joins values, the source holds several entries; their conditions need not be identical. Equal entries are not always repeated.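 Cultured in 96-well plates, cells were exposed to test compound for 48 hours across five concentrations. Here, GI50 denotes the concentration required for 50% inhibition of growth. At the TGI there is no net growth.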

Columns and labels:
Assay in all cases: DTP human tumour cell line panel, 48 h
ACHN renal = system: ACHN renal
CCRF-CEM leukemia = system: CCRF-CEM leukemia
HS 578T breast = system: HS 578T breast
K-562 leukemia = system: K-562 leukemia
OVCAR-3 ovarian = system: OVCAR-3 ovarian
SF-295 CNS = system: SF-295 CNS
SF-539 CNS = system: SF-539 CNS
SK-MEL-5 melanoma = system: SK-MEL-5 melanoma
SN12C renal = system: SN12C renal
MALME-3M melanoma = system: MALME-3M melanoma

Structure (SMILES)	GI50 (ACHN renal) [µM]	TGI (ACHN renal)	GI50 (CCRF-CEM leukemia)	TGI (CCRF-CEM leukemia) [µM]	GI50 (HS 578T breast) [µM]	TGI (HS 578T breast) [µM]	GI50 (K-562 leukemia) [µM]	TGI (K-562 leukemia)	GI50 (OVCAR-3 ovarian)	TGI (OVCAR-3 ovarian)	GI50 (SF-295 CNS)	TGI (SF-295 CNS)	GI50 (SF-539 CNS) [µM]	TGI (SF-539 CNS)	GI50 (SK-MEL-5 melanoma)	TGI (SK-MEL-5 melanoma)	GI50 (SN12C renal) [µM]	TGI (SN12C renal)	GI50 (MALME-3M melanoma)	TGI (MALME-3M melanoma)
CCN(Cc1nc2cc(C(F)(F)F)ccc2nc1-c1ccccc1)c1ccc(OC)c(OC)c1	16.4	44 µM	4.74 µM	24.7	11.4	30	6.72	24.6 µM	13.1 µM	26.5 µM	15.7 µM	31.8 µM	15.9	33.1 µM	13.9 µM	28 µM	14.9	29.6 µM		
COc1cc(-c2nc(SCC(=O)Nc3ccc(C(C)=O)cc3)[nH]c(=O)c2C#N)cc(OC)c1OC	85	> 100 µM	31.6 µM	> 100			37.7	> 100 µM	34 µM	> 100 µM	43 µM	> 100 µM	29.6	> 100 µM	31.9 µM	> 100 µM	70.2	> 100 µM	48.1 µM	> 100 µM
Cc1ccc(S(=O)(=O)NC(CCC(=O)Nc2ccccc2)C(=O)Nc2ccccc2)cc1 (centres undefined)									0.419 µM	1.35 µM	0.362 µM	1.69 µM	0.283	0.89 µM	0.226 µM	0.656 µM			0.745 µM	2.51 µM
CN(/N=C/c1ccnc2ccccc12)c1ccc([N+](=O)[O-])cc1[N+](=O)[O-]		> 100 µM		> 100				> 100 µM		> 100 µM		> 100 µM		> 100 µM		> 100 µM		> 100 µM		> 100 µM
O=C1C=CN(C2OC(CO)C(O)C2O)C(=O)C1 (centres undefined)		> 2500 µM	> 625 µM	> 1710		> 747		> 2500 µM		> 1870 µM	116 µM and 59.1 µM	625 µM and > 2060 µM	146	625 µM and 1800 µM	> 625 µM and 325 µM	> 2500 µM	1.34			
CCc1ccc(/C(C)=N/NC(N)=S)cc1								> 100 µM		> 100 µM		> 100 µM		> 100 µM		> 100 µM				> 100 µM
O=C(CCCNC(=O)OCc1ccccc1)OCc1ccc2c(c1)C(=O)c1ccccc1C2=O		> 100 µM		> 100				> 100 µM		> 100 µM		83.9 µM		57.8 µM		> 100 µM		> 26 µM		> 100 µM
COc1ccc(OC)c(-c2cc(-c3ccccc3)nn2-c2ccc(S(N)(=O)=O)cc2)c1	8.01	19.7 µM	4.17 µM	> 100	18.9	59.1	2.68	6.38 µM	5.91 µM	19 µM	13.6 µM	29.2 µM	18.7	36.6 µM	16.5 µM	31.3 µM	12.5	25 µM		
CCOC(=O)c1c(C)n(CC(C)C)c2c1cc1oc(=O)c(=O)n3cnc2c13	9.34	24.1 µM			11.8	38.5	16.1	> 50 µM	11.2 µM	25.9 µM	12.8 µM	33 µM	15.6	42 µM	10.1 µM	19.8 µM	10.7	22.9 µM		
CC(C)c1cc(CNc2nc(Nc3cc(C4CC4)[nH]n3)cc(N3CCN(C)CC3)n2)on1		> 10 µM and 6.66 µM	4.62 µM and 1.02 µM	> 100				> 10 µM and 14.5 µM	2.14 µM and 0.256 µM	> 10 µM and 4.1 µM		> 10 µM and 2.77 µM		> 10 µM and 1.02 µM	> 10 µM and 1.32 µM	> 10 µM and 4.72 µM		> 10 µM and 15.1 µM	1.61 µM and 0.276 µM	> 10 µM and 2.96 µM
N#CCC(=O)N/N=C1/C(=O)NC(=O)C(=O)C1c1nc2ccccc2s1 (centres undefined)		> 100 µM		> 100				> 100 µM		> 100 µM		> 100 µM		> 100 µM		> 100 µM		> 100 µM		> 100 µM
O=C(CCC(=O)N/N=C/c1ccccc1O)N/N=C/c1ccccc1O								> 100 µM		> 100 µM		> 100 µM				> 100 µM		> 100 µM		> 100 µM
CCN(CC)CCCCCOc1cc(O)c2c(=O)cc(-c3ccccc3)oc2c1	3.72	11.7 µM			15.6	42.7	1.86	3.56 µM	1.93 µM	4.94 µM	2.87 µM	5.69 µM	2.43	6.01 µM	1.91 µM	3.83 µM	4.78	17 µM	1.86 µM	4.2 µM
CN(C)c1nc(N(C)C)n2nc(-c3ccccc3[N+](=O)[O-])nc2n1		> 100 µM		> 100				> 100 µM		> 100 µM		> 100 µM		> 100 µM		> 100 µM		> 100 µM		> 100 µM
COc1ccccc1CNC(=O)C1c2ccccc2C(=O)N(CC(C)C)C1c1cccs1 (centres undefined)	24.8	90.3 µM			16	60.1	20.3	> 100 µM	25.7 µM	89.1 µM	15.6 µM	67.8 µM	16.9	33.8 µM	14.7 µM	28.9 µM	35	> 100 µM	20.7 µM	60.3 µM
CCOC(=O)c1cc2cc(NC(=O)c3cc4cc([N+](=O)[O-])ccc4n3C)ccc2n1C	13.5	31.9 µM	7.94 µM	> 100	97.5	> 100	59.1	> 100 µM	31.7 µM	> 100 µM	30.1 µM	> 100 µM			74 µM	> 100 µM	16.3	46.5 µM		
COc1ccc(CCNCc2cccc(OC)c2OC)cc1OC		> 100 µM		> 100				> 100 µM		> 100 µM		> 100 µM				> 100 µM		> 100 µM		> 100 µM
